From ChEMBL document CHEMBL4725218, “Deep Learning Enhancing Kinome-Wide Polypharmacology Profiling: Model Construction and Experiment Validation” (J Med Chem, 2020) come the findings set out here.

For assay [1], the target named is Vascular endothelial growth factor receptor 2 (Homo sapiens) (UniProt P35968). Description: Inhibition of human VEGFR2 assessed as remaining enzyme activity at 0.1 uM.
The target of assay [2] is RAF proto-oncogene serine/threonine-protein kinase (Homo sapiens) (UniProt P04049). Kind of assay: Inhibition of human RAF1 assessed as remaining enzyme activity at 0.01 uM.
In assay [3] the target is NT-3 growth factor receptor (Homo sapiens) (UniProt Q16288). Kind of assay: Inhibition of human TRKC assessed as remaining enzyme activity at 1 uM.
Assay [4] concerns the target Tyrosine-protein kinase ABL1 (Mus musculus) (UniProt P00520). Kind of assay: Inhibition of mouse Abl assessed as remaining enzyme activity at 1 uM.
The target of assay [5] is Epithelial discoidin domain-containing receptor 1 (Homo sapiens) (UniProt Q08345). Description: Inhibition of human DDR1 assessed as remaining enzyme activity at 0.01 uM.
In assay [6] the target is Serine/threonine-protein kinase B-raf (Homo sapiens) (UniProt P15056). Description: Inhibition of human B-Raf assessed as remaining enzyme activity at 1 uM.
In assay [7] the target is Homeodomain-interacting protein kinase 2 (Homo sapiens) (UniProt Q9H2X6). Description: Inhibition of human HIPK2 assessed as remaining enzyme activity at 0.1 uM.
In assay [8] the target is Tyrosine-protein kinase ABL1 (Mus musculus) (UniProt P00520). Kind of assay: Inhibition of mouse Abl assessed as remaining enzyme activity at 0.1 uM.
Assay [9] has as its target T1, Muscle, skeletal receptor tyrosine-protein kinase (Homo sapiens) (UniProt O15146).
T1 sequence (whole entry): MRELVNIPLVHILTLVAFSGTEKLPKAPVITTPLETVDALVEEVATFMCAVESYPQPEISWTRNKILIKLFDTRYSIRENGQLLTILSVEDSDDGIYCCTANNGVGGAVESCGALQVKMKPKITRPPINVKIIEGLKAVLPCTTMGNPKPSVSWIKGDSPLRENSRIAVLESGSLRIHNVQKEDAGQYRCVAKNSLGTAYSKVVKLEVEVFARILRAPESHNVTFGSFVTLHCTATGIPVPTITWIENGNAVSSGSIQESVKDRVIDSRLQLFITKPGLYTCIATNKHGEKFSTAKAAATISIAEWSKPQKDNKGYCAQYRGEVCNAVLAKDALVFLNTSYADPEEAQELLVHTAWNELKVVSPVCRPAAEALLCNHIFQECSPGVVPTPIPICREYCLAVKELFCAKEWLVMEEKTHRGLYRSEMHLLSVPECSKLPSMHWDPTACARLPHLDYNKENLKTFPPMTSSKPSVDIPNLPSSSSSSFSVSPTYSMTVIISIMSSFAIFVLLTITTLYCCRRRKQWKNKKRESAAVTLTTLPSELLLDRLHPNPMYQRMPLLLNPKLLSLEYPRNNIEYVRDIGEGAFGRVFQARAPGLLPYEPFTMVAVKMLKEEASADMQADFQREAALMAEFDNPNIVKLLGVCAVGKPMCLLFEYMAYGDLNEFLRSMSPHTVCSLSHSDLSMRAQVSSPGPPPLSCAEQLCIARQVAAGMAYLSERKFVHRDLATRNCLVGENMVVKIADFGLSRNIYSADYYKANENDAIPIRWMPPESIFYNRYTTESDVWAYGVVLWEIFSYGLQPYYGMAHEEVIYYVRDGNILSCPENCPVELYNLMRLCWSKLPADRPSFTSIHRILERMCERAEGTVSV
Description: Inhibition of human MuSK assessed as remaining enzyme activity at 1 uM.

Assay [10] has as its target Homeodomain-interacting protein kinase 2 (Homo sapiens) (UniProt Q9H2X6). Description: Inhibition of human HIPK2 assessed as remaining enzyme activity at 1 uM.
Assay [11] addresses T2, Homeodomain-interacting protein kinase 4 (Homo sapiens) (UniProt Q8NE63).
T2 sequence (whole entry): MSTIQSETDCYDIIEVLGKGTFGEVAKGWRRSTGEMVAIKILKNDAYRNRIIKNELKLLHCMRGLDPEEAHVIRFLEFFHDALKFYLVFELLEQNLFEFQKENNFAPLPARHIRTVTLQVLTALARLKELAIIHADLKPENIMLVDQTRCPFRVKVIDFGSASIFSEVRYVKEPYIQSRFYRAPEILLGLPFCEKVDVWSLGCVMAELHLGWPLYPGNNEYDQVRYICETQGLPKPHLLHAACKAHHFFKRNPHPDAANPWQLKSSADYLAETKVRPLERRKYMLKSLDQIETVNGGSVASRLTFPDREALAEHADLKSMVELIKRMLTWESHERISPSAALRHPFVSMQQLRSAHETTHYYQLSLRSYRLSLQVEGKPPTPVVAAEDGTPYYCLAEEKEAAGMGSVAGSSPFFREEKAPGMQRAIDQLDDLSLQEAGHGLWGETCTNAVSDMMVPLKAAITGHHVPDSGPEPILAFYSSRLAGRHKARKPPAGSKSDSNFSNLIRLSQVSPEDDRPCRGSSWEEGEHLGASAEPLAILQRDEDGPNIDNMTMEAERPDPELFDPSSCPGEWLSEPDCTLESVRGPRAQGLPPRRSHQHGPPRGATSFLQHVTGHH
Kind of assay: Inhibition of human HIPK4 assessed as remaining enzyme activity at 0.1 uM.

Assay [12] addresses Tyrosine-protein kinase Blk (Mus musculus) (UniProt P16277). Kind of assay: Inhibition of mouse BLK assessed as remaining enzyme activity at 1 uM.
Assay [13] deals with Tyrosine-protein kinase ABL1 (Mus musculus) (UniProt P00520). Kind of assay: Inhibition of mouse Abl assessed as remaining enzyme activity at 0.01 uM.
Assay [14] deals with Tyrosine-protein kinase ABL1 (Homo sapiens) (UniProt P00519). Description: Inhibition of human ABL assessed as remaining enzyme activity at 0.01 uM.
The target of assay [15] is Mast/stem cell growth factor receptor Kit (Homo sapiens) (UniProt P10721). Kind of assay: Inhibition of human c-Kit assessed as remaining enzyme activity at 1 uM.
For assay [16], the target named is Homeodomain-interacting protein kinase 3 (Homo sapiens) (UniProt Q9H422). Kind of assay: Inhibition of human HIPK3 assessed as remaining enzyme activity at 0.01 uM.
The target in assay [17] is Epithelial discoidin domain-containing receptor 1 (Homo sapiens) (UniProt Q08345). Description: Inhibition of human DDR1 assessed as remaining enzyme activity at 0.1 uM.
The target of assay [18] is Tyrosine-protein kinase Lyn (Homo sapiens) (UniProt P07948). Description: Inhibition of human LYN assessed as remaining enzyme activity at 1 uM.
For assay [19], the target named is Mitogen-activated protein kinase 14 (Homo sapiens) (UniProt Q16539). Kind of assay: Inhibition of human p38alpha assessed as remaining enzyme activity at 0.01 uM.
The target in assay [20] is Vascular endothelial growth factor receptor 3 (Homo sapiens) (UniProt P35916). Description: Inhibition of human VEGFR3 assessed as remaining enzyme activity at 0.01 uM.
The target of assay [21] is Platelet-derived growth factor receptor alpha (Homo sapiens) (UniProt P16234). Description: Inhibition of human PDGFRAlpha assessed as remaining enzyme activity at 1 uM.
The target in assay [22] is Vascular endothelial growth factor receptor 1 (Homo sapiens) (UniProt P17948). Description: Inhibition of human VEGFR1 assessed as remaining enzyme activity at 1 uM.
The target of assay [23] is Homeodomain-interacting protein kinase 2 (Homo sapiens) (UniProt Q9H2X6). Description: Inhibition of human HIPK2 assessed as remaining enzyme activity at 0.01 uM.
For assay [24], the target named is Mitogen-activated protein kinase kinase kinase kinase 5 (Homo sapiens) (UniProt Q9Y4K4). Kind of assay: Inhibition of human MAP4K5 assessed as remaining enzyme activity at 0.01 uM.

Sequence of Tyrosine-protein kinase ABL1 (Mus musculus) (P00520 whole entry, the tested form may be a part): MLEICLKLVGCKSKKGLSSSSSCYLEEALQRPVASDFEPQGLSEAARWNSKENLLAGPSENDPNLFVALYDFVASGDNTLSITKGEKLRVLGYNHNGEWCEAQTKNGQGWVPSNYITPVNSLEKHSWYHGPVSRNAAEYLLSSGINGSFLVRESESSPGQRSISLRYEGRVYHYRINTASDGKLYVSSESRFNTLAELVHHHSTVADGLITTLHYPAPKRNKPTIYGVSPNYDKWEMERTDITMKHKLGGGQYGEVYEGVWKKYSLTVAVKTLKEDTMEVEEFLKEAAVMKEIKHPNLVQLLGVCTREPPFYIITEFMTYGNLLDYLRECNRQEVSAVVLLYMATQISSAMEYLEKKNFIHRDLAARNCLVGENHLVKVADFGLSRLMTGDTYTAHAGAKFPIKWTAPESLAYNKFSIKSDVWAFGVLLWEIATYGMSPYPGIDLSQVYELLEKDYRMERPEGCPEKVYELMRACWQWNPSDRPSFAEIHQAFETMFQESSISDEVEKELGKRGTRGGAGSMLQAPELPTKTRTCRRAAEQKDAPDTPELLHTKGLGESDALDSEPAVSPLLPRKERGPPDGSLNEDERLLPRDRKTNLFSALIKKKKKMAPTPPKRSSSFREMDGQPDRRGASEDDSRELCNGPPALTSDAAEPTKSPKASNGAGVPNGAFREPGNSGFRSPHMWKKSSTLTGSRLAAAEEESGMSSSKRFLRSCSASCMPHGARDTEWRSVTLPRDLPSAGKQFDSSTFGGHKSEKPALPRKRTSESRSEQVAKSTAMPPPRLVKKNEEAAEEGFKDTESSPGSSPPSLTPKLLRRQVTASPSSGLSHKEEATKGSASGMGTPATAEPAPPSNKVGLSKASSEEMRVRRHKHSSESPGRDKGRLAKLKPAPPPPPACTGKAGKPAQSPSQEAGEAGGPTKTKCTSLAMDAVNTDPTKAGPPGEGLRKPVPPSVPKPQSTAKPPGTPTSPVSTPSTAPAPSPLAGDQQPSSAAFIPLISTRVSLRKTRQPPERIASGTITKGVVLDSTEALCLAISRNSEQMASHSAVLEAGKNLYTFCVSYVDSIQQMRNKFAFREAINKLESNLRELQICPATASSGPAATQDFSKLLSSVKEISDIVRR
Sequence of Homeodomain-interacting protein kinase 2 (Homo sapiens) (Q9H2X6 whole entry, looked up): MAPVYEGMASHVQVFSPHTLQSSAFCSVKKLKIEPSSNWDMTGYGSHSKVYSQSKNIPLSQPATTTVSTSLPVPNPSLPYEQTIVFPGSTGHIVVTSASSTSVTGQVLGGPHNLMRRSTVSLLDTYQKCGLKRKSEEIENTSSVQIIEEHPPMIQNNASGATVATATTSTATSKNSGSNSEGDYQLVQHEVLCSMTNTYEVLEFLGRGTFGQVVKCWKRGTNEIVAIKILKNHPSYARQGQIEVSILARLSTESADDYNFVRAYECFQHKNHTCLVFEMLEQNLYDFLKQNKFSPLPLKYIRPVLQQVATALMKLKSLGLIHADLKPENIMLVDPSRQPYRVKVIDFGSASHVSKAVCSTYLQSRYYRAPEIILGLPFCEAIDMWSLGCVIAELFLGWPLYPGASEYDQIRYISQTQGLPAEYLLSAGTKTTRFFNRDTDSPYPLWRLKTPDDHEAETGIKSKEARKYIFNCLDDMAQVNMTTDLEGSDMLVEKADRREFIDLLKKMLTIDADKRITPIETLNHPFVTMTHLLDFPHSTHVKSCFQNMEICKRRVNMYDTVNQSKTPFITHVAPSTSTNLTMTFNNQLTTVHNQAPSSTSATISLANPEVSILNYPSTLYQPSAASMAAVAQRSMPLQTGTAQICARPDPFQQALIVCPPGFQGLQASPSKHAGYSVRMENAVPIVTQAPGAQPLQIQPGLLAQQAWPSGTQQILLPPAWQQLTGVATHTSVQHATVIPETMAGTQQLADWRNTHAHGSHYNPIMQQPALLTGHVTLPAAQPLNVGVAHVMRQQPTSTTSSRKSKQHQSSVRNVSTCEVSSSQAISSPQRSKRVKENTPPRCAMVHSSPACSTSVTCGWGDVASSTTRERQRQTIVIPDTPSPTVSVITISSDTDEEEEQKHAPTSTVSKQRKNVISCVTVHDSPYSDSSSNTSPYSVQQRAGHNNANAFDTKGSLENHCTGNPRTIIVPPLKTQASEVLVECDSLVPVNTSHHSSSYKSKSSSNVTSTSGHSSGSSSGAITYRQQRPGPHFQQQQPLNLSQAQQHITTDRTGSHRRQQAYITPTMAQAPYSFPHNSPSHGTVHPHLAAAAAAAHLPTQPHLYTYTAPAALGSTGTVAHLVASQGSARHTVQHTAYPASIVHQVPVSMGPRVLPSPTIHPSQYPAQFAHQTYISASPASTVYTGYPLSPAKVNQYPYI
Sequence of Epithelial discoidin domain-containing receptor 1 (Homo sapiens) (Q08345 whole entry, the tested form may be a part): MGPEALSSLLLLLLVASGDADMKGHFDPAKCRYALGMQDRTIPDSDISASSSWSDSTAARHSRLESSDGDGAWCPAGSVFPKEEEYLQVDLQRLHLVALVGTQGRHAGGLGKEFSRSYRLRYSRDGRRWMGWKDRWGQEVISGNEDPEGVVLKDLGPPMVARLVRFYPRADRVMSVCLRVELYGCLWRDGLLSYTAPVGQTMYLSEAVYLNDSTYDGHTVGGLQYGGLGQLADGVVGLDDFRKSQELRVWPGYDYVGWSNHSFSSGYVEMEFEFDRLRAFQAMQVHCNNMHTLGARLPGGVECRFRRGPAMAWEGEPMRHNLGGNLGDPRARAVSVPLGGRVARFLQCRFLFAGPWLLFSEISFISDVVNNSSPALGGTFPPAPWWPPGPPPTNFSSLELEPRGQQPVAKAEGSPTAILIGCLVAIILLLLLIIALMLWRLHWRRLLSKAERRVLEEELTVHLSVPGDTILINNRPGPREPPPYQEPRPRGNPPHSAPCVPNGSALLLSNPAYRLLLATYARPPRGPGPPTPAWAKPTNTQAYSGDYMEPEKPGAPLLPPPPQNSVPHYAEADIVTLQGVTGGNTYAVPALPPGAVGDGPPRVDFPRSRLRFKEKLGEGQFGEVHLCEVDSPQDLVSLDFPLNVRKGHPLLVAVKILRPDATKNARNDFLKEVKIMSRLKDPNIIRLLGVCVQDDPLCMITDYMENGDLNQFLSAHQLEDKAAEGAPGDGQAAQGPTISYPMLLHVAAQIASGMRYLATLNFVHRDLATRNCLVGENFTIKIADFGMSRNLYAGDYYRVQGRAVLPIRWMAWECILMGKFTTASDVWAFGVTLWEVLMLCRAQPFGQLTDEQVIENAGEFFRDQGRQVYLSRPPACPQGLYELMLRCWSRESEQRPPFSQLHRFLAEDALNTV
Sequence of Tyrosine-protein kinase ABL1 (Homo sapiens) (P00519 whole entry): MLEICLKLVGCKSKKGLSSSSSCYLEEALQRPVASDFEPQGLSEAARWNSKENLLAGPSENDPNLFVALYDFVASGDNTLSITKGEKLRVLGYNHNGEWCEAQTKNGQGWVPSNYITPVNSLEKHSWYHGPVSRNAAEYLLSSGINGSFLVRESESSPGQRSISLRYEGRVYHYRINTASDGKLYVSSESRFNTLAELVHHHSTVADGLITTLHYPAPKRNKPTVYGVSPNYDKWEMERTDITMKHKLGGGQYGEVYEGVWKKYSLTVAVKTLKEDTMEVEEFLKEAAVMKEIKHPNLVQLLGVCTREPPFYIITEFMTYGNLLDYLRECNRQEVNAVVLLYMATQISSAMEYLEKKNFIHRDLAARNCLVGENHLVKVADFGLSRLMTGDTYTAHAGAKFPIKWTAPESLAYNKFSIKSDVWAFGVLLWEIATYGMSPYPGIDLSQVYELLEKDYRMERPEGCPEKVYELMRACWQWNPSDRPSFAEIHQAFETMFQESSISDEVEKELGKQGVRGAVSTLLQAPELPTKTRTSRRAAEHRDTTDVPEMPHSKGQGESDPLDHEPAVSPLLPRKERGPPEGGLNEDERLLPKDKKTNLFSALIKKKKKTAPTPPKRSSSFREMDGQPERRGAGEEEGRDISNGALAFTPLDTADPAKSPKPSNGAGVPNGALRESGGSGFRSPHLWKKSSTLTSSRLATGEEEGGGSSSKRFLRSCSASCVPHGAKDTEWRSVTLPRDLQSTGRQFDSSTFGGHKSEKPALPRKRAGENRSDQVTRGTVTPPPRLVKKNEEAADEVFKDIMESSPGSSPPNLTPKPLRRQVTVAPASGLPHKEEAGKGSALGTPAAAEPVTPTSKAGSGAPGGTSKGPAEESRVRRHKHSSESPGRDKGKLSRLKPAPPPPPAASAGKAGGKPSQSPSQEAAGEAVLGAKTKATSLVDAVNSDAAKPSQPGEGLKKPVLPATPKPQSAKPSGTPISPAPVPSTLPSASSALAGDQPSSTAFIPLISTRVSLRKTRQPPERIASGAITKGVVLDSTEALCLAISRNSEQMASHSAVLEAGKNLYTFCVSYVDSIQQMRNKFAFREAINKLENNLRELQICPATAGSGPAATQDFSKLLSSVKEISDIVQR
Sequence of Mitogen-activated protein kinase 14 (Homo sapiens) (Q16539 whole entry): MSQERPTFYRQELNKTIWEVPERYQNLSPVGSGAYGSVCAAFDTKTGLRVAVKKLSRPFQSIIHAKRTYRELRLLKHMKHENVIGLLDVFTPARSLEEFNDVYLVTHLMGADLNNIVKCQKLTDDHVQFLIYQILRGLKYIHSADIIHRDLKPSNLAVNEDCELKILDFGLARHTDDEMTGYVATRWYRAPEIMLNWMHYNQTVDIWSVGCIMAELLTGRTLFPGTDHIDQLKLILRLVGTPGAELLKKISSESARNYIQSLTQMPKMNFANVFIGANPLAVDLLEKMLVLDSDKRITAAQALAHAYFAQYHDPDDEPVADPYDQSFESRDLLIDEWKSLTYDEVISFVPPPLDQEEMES

Take `CNC(=O)c1cc(Oc2ccc(NC(=O)Nc3ccc(Cl)c(C(F)(F)F)c3)c(F)c2)ccn1`: the Activity was 19% in assay [1]; 93% in [2]; 1% in assay [3]; -1% in [4]; 92% in assay [5]; 8% in [6]. Moreover, the Activity is 61% in assay [7]; -7% in assay [8]; 21% in [9]; 13% in assay [10]; 3% in [11]; 1% in assay [12]. Besides, the Activity was 22% in assay [13]; 79% in assay [14]; -1% in assay [15]; 103% in [16]; 43% in assay [17]; 1% in [18]. Moreover, the Activity in assay [19] came to 100%; in assay [20], 38%; in assay [21], 35%; in [22], 3%; in assay [23], 96%; in assay [24], 104%.
